{"source": "patent US20160311812A1", "about": "“ADENOSINE A1 AGONISTS AS MEDICAMENTS FOR KIDNEY DISORDERS” (BAYER PHARMA AKTIENGESELLSCHAFT, priority 2013, published 2016)", "key": {"[1]": {"tested_on": "5/6 nephrectomy rat model", "assay": "Left-ventricular diastolic dysfunction under isoprenaline infusion in 5/6 nephrectomized rats", "assay_type": "in vivo", "conditions": "Group 3: SNX + 10 mg/kg body weight/day in drinking water, 4 weeks", "from_the_text": "(§1) B-3. Effects of Partial A1 Agonists on Renal and Cardiac Function in 5/6 Nephrectomized Rats (Example 1 for Chronic Kidney Disorder)\n(§2) 5/6 nephrectomy in the rat, in which one kidney and the renal cortex of the second kidney are surgically removed (=5/6 of functional kidney tissue) is an established animal model for interstitial renal fibrosis and chronic renal insufficiency [C. Fleck et al., “Suitability of 5/6 nephrectomy (5/6NX) for the induction of interstitial renal fibrosis in rats Influence of sex, strain, and surgical procedure”, Exp. Tox. Pathology 2006, 57, 195-205]. The model is characterized by progressive proteinuria, disturbed tubular electrolyte transport, a reduced glomerular filtration rate, an increase in urinary output, interstitial fibrosis with reactively occurring lymphocyte infiltrates, glomerulosclerosis and tubular atrophy. The level of proteinuria is a specific index of the renal function prognosis: the higher the proteinuria, the greater is the functional and structural kidney injury and therefore progression of chronic to terminal renal insufficiency (uraemia). During monitoring of therapy, e.g. with the ACE inhibitor enalapril, the course of proteinuria provides information on the functional and structural response to the therapy and thus on the renal function prognosis. As a result of the renal insufficiency and accumulation of umemic toxins, in the animals there is secondary development of a umemic cardiomyopathy, depending on the severity associated with hypertension, increased heart rate, reduced parasympathetic tone, myocardial, left-ventricular hypertrophy and fibrosis, diastolic dysfunction and an increased prevalence of arrhythmias [Svilerova et al. 2010 Physiol Res 59: S81-S88).\n(§3) Procedure: male Wistar:WU rats (210-250 g) from Charles River had the left kidney and the renal cortex of the right kidney removed (=SNX) in one session; sham-operated rats served as control group (=SOP). The following groups, each with 12 rats per group, were investigated:\n(§4) Group 2 SNX+placebo (60 g glycerol+100 g water+969 g PEG-400)\n(§5) Group 3 SNX+10 mg/kg body weight/day enalapril (reference therapy, in the drinking water)\n(§6) Group 4 SNX+0.1 mg/kg body weight/day partial A1 agonist EXAMPLE 1, p.o. in placebo\n(§7) Group 5 SNX+1.0 mg/kg body weight/day partial A1 agonist EXAMPLE 1, p.o. in placebo\n(§8) Group 6 SNX+0.3 mg/kg body weight/day partial A1 agonist EXAMPLE 4, p.o. in placebo\n(§9) Group 7 SNX+3.0 mg/kg body weight/day partial A1 agonist EXAMPLE 4, p.o. in placebo\n(§10) Three weeks after 5/6 nephrectomy, the rats developed manifest proteinuria, from this time point the rats were treated for a further four weeks corresponding to the groups stated above. At the end of the protocol, the following samples were obtained/measurements were carried out: eight-hour urine collection with determination of the concentration of hFABP in the urine by ELISA (Rat/Mouse h-FABP ELISA, Hycultbiotech), as marker for end organ damage, invasive measurement of the isoprenaline-induced increase (cumulatively 12.5 ng-250 ng/kg isoprenaline, i.v.) in systolic and diastolic left ventricular function, and TaqMan analyses of renal injury markers in the renal cortex."}, "[2]": {"tested_on": "5/6 nephrectomy rat model", "assay": "Functional and structural renal dysfunction in 5/6 nephrectomized rats", "assay_type": "in vivo", "conditions": "Group 3: SNX + 10 mg/kg body weight/day in drinking water, 4 weeks", "from_the_text": "as §1, §2, §3, §4, §5, §6, §7, §8, §9, §10"}, "[3]": {"tested_on": "unilaterally nephrectomized SHR", "assay": "Functional and structural renal dysfunction in unilaterally nephrectomized spontaneously hypertensive rats", "assay_type": "in vivo, rat", "conditions": "Group 3: UNX + 10 mg/kg body weight/day in drinking water, 4 weeks", "from_the_text": "(§11) B-4. Effects of Partial A1 Agonists on Renal and Cardiac Function in Unilaterally Nephrectomized and Spontaneously Hypertensive Rats (Example 2 for Chronic Kidney Disorders)\n(§12) Unilaterally nephrectomized, spontaneously hypertensive rats (SHR) are an established animal model for investigating the development and progression of hypertensive damage of the glomeruli in the remaining kidney [H. Kinuno et al., “Effects of uninephrectomy on renal structural properties in spontaneously hypertensive rats”, Clin and Exp Pharmacol and Physiol 2005, 32, 173-178]. […] Furthermore, renal excretion of substances usually eliminated in the urine, such as creatinine and urea, is reduced and the electrolyte metabolism is disturbed, the latter being associated with volume retention.\n(§13) Procedure: male SHR rats (180-220 g) from Taconic had the left kidney removed in one session (=UNX). Normotensive Wistar Kyoto rats (WKY) from Taconic served as control. The following groups, each with 12 rats per group, were investigated:\n(§14) Group 2 UNX+placebo (60 g glycerol+100 g water+969 g PEG-400)\n(§15) Group 3 UNX+10 mg/kg body weight/day enalapril (reference therapy, in the drinking water)\n(§16) Group 4 SNX+1.0 mg/kg body weight/day partial A1 EXAMPLE 1, p.o. in placebo\n(§17) Group 5 SNX+3.0 mg/kg body weight/day partial A1 EXAMPLE 4, p.o. in placebo\n(§18) Three weeks after unilateral nephrectomy, the SHRs developed manifest hypertensive damage of the glomeruli in the remaining kidney, from this time point on the rats were treated for a further four weeks corresponding to the groups given above. At the end of the protocol, the following samples were obtained/measurements were carried out: eight-hour urine collection, invasive measurement of systolic and diastolic left ventricular function, and TaqMan analyses of renal injury markers in the renal cortex."}, "[4]": {"tested_on": "unilaterally nephrectomized SHR", "assay": "Functional and structural myocardial dysfunction in unilaterally nephrectomized spontaneously hypertensive rats", "assay_type": "in vivo, rat", "conditions": "Group 3: UNX + 10 mg/kg body weight/day in drinking water, 4 weeks", "from_the_text": "as §11, §12, §13, §14, §15, §16, §17, §18"}}}
{"compound": "CCOC(=O)[C@H](CCc1ccccc1)N[C@@H](C)C(=O)N1CCC[C@H]1C(=O)O", "note": "[enalapril, reference compound]", "values": [{"measurement": "left-ventricular pressure decrease as a function of time", "setting": "[1]; isoprenaline 0 ng/kg body weight", "result": "6613 ± 226", "unit": "mmHg/s"}, {"measurement": "left-ventricular pressure decrease as a function of time", "setting": "[1]; isoprenaline 12.5 ng/kg body weight", "result": "7972 ± 280", "unit": "mmHg/s"}, {"measurement": "left-ventricular pressure decrease as a function of time", "setting": "[1]; isoprenaline 25 ng/kg body weight", "result": "8297 ± 285", "unit": "mmHg/s"}, {"measurement": "left-ventricular pressure decrease as a function of time", "setting": "[1]; isoprenaline 50 ng/kg body weight", "result": "8705 ± 227", "unit": "mmHg/s"}, {"measurement": "left-ventricular pressure decrease as a function of time", "setting": "[1]; isoprenaline 100 ng/kg body weight", "result": "9267 ± 177", "unit": "mmHg/s"}, {"measurement": "left-ventricular pressure decrease as a function of time", "setting": "[1]; isoprenaline 250 ng/kg body weight", "result": "9359 ± 202", "unit": "mmHg/s"}, {"measurement": "P-urea", "setting": "[2]", "result": "15 ± 1", "unit": "mmol/L"}, {"measurement": "U-creatinine", "setting": "[2]", "result": "1.6 ± 0.2", "unit": "μmol/ml urine/kg BW/h"}, {"measurement": "U-protein", "setting": "[2]", "result": "0.25 ± 0.04", "unit": "μmol/ml urine/kg BW/h"}, {"measurement": "U-sodium", "setting": "[2]", "result": "18 ± 3", "unit": "μmol/ml urine/kg BW/h"}, {"measurement": "U-urea", "setting": "[2]", "result": "198 ± 22", "unit": "μmol/ml urine/kg BW/h"}, {"measurement": "Urine volume", "setting": "[2]", "result": "2.8 ± 0.2", "unit": "ml/kg BW/h"}, {"measurement": "End organ injury marker concentration in the urine: hFABP", "setting": "[2]; ELISA", "result": "377 ± 151", "unit": "pg hFABP/ml urine/h"}, {"measurement": "End organ injury marker concentration in the urine: hFABP per creatinine", "setting": "[2]; ELISA", "result": "83 ± 33", "unit": "pg hFABP/μmol creatinine"}, {"measurement": "Kidney injury marker-1 [gene expression]", "setting": "[2]; renal cortex", "result": "27 ± 17", "unit": "rel. expression"}, {"measurement": "Lipocalin-2 [gene expression]", "setting": "[2]; renal cortex", "result": "400 ± 236", "unit": "rel. expression"}, {"measurement": "Osteopontin [gene expression]", "setting": "[2]; renal cortex", "result": "6226 ± 4107", "unit": "rel. expression"}, {"measurement": "P-creatinine", "setting": "[3]", "result": "62 ± 1.6", "unit": "mmol/L"}, {"measurement": "P-urea", "setting": "[3]", "result": "9.3 ± 0.4", "unit": "mmol/L"}, {"measurement": "U-creatinine", "setting": "[3]", "result": "1.5 ± 0.3", "unit": "μmol/ml urine/kg BW/h"}, {"measurement": "U-protein", "setting": "[3]", "result": "0.43 ± 0.07", "unit": "μmol/ml urine/kg BW/h"}, {"measurement": "U-sodium", "setting": "[3]", "result": "30 ± 5", "unit": "μmol/ml urine/kg BW/h"}, {"measurement": "U-urea", "setting": "[3]", "result": "153 ± 27", "unit": "μmol/ml urine/kg BW/h"}, {"measurement": "Urine volume", "setting": "[3]", "result": "2.4 ± 0.2", "unit": "ml/kg BW/h"}, {"measurement": "CYR61 [gene expression]", "setting": "[3]; renal cortex", "result": "460 ± 55", "unit": "rel. expression"}, {"measurement": "Lipocalin-2 [gene expression]", "setting": "[3]; renal cortex", "result": "140 ± 23", "unit": "rel. expression"}, {"measurement": "Diastolic blood pressure", "setting": "[4]", "result": "91 ± 5", "unit": "mmHg"}, {"measurement": "Heart rate", "setting": "[4]", "result": "353 ± 7", "unit": "beats/min"}, {"measurement": "Left ventricular hypertrophy (LVS/RV ratio, mg/mg)", "setting": "[4]", "result": "3.7 ± 0.2", "unit": "mg/mg"}, {"measurement": "Left-ventricular end-diastolic pressure", "setting": "[4]", "result": "5.4 ± 0.6", "unit": "mmHg"}, {"measurement": "Left-ventricular pressure", "setting": "[4]", "result": "130 ± 5", "unit": "mmHg"}, {"measurement": "Pressure decrease over time", "setting": "[4]", "result": "−10130 ± 239", "unit": "mmHg/s"}, {"measurement": "Pressure increase over time", "setting": "[4]", "result": "8114 ± 304", "unit": "mmHg/s"}, {"measurement": "Systolic blood pressure", "setting": "[4]", "result": "132 ± 4", "unit": "mmHg"}]}
